Patent US20250312258A1, “2,3-PYRROLIDINEDIONE CONJUGATES AND METHODS OF USING THEREOF” (North Carolina State University, priority 2022, published 2025)
Converted amounts (≈) assume the structure as drawn. Where two headings read alike, the source gives them in different places.

Columns and labels:
VRE = assay: MIC / in vitro activity against VRE strain panel; assay type: cell-based, Enterococcus spp.; settings: Enterococcus, VRE, the 6th table, read-out: MIC
MRSA = assay: MIC against MRSA strain panel; assay type: cell-based; settings: Staphylococcus aureus, the 4th table, read-out: MIC
MSSA = assay: MIC against MSSA strain panel; assay type: cell-based; settings: Staphylococcus aureus, the 4th table, read-out: MIC
S. pneumoniae = assay: MIC against S. pneumoniae strain panel; assay type: cell-based; settings: Streptococcus pneumoniae, read-out: MIC
S. aureus 25923 = assay: Broth microdilution MIC, S. aureus 25923; assay type: cell-based, Staphylococcus aureus; settings: Staphylococcus aureus, 25923; read-out: MIC (S. aureus 25923)
VRSA = assay: MIC against VRSA (Table 2); assay type: cell-based; settings: Staphylococcus aureus, read-out: MIC (VRSA)
E. coli = assay: MIC against E. coli strains; assay type: cell-based; settings: the 4th table
Group A Strep = assay: MIC against Group A Strep strain panel; assay type: cell-based; settings: read-out: MIC

CCC1C(c2ccc(C(F)(F)F)cc2)=C(O)C(=O)N1CCCNCCCCNC (centres unmarked) [Compound 8]
MIC (VRE; 3239 VRE): 32 µg/mL (≈ 77.4 µM) | MIC (VRE; 3241 VRE): 32 µg/mL (≈ 77.4 µM) | MIC (VRE; 3623 VRE): 32 µg/mL (≈ 77.4 µM) | MIC (MRSA; 6215 MRSA): 1 µg/mL (≈ 2.42 µM) | MIC (MRSA; 6217 MRSA): 0.5 µg/mL (≈ 1.21 µM) | MIC (MRSA; 6218 MRSA): 1 µg/mL (≈ 2.42 µM) | MIC (MRSA; 6220 MRSA): 1 µg/mL (≈ 2.42 µM) | MIC (MRSA; 6231 MRSA): 0.5 µg/mL (≈ 1.21 µM) | MIC (MRSA; AR-978 MRSA): 1 µg/mL (≈ 2.42 µM) | MIC (MRSA; AR-979 MRSA): 0.5 µg/mL (≈ 1.21 µM) | MIC (MRSA; AR-993 MRSA): 1 µg/mL (≈ 2.42 µM) | MIC (MRSA; AR-997 MRSA): 1 µg/mL (≈ 2.42 µM) | MIC (MSSA; VGP16-94 MSSA): 0.5 µg/mL (≈ 1.21 µM) | MIC (MSSA; VGP16-95 MSSA): 1 µg/mL (≈ 2.42 µM) | MIC (MSSA; VGP16-96 MSSA): 0.5 µg/mL (≈ 1.21 µM) | MIC (MSSA; VGP16-97 MSSA): 0.5 µg/mL (≈ 1.21 µM) | MIC (MSSA; VGP16-98 MSSA): 0.5 µg/mL (≈ 1.21 µM) | MIC (MSSA; VGP16-99 MSSA): 1 µg/mL (≈ 2.42 µM) | MIC (MSSA; VGP16-100 MSSA): 1 µg/mL (≈ 2.42 µM) | MIC (MSSA; VGP16-101 MSSA): 1 µg/mL (≈ 2.42 µM) | MIC (MSSA; VGP16-116 MSSA): 1 µg/mL (≈ 2.42 µM) | MIC (MSSA; VGP16-117 MSSA): 1 µg/mL (≈ 2.42 µM) | MIC (S. pneumoniae; ATCC49619, ATCC 49619 S. pneumoniae, CA-MHB w/5% LHB, the 4th table): 0.25 µg/mL (≈ 0.605 µM) | MIC (S. pneumoniae; ATCC49619, ATCC 49619 S. pneumoniae, the 7th table): 0.25 µg/mL (≈ 0.605 µM) | MIC (S. pneumoniae; CO314937 S. pneumoniae, CA-MHB w/5% LHB, the 4th table): 0.25 µg/mL (≈ 0.605 µM) | MIC (S. pneumoniae; CT3-5008 S. pneumoniae, the 7th table): 0.25 µg/mL (≈ 0.605 µM) | MIC (S. pneumoniae; CT3-5803 S. pneumoniae, the 7th table): 0.25 µg/mL (≈ 0.605 µM) | MIC (S. pneumoniae; CT3-8501 S. pneumoniae, the 7th table): 0.25 µg/mL (≈ 0.605 µM) | MIC (S. pneumoniae; CT4-3048 S. pneumoniae, the 7th table): 0.25 µg/mL (≈ 0.605 µM) | MIC (S. pneumoniae; CT4-9046 S. pneumoniae, the 7th table): ≤ 0.125 µg/mL | MIC (S. pneumoniae; CT4-9693 S. pneumoniae, the 7th table): 0.25 µg/mL (≈ 0.605 µM) | MIC (S. pneumoniae; CT5-6541 S. pneumoniae, the 7th table): 0.25 µg/mL (≈ 0.605 µM) | MIC (S. pneumoniae; CT5-8032 S. pneumoniae, the 7th table): 0.25 µg/mL (≈ 0.605 µM) | MIC (S. pneumoniae; CT5-9124 S. pneumoniae, the 7th table): 0.25 µg/mL (≈ 0.605 µM) | MIC (S. pneumoniae; CT6-0670 S. pneumoniae, the 7th table): 0.25 µg/mL (≈ 0.605 µM) | MIC (S. pneumoniae; CT6-7691 S. pneumoniae, the 7th table): 0.25 µg/mL (≈ 0.605 µM) | MIC (S. pneumoniae; CT0200-2241 S. pneumoniae, the 7th table): 0.25 µg/mL (≈ 0.605 µM) | MIC (S. pneumoniae; CT0200-2730 S. pneumoniae, the 7th table): 0.5 µg/mL (≈ 1.21 µM) | MIC (S. pneumoniae; MD77773 S. pneumoniae, CA-MHB w/5% LHB, the 4th table): 0.25 µg/mL (≈ 0.605 µM) | MIC (S. aureus 25923): 0.25 µg/mL (≈ 0.605 µM) | MIC (VRSA): 2 µg/mL (≈ 4.84 µM) | MIC (E. coli; AR-137 E. coli): >64 µg/mL | MIC (E. coli; Escherichia coli, ATCC25922, ATCC 25922 E. coli, read-out: MIC): > 64 µg/mL | MIC (E. coli; Escherichia coli, AR-451 E. coli, read-out: MIC): > 64 µg/mL | MIC (Group A Strep; 2007-11 Group A Strep, the 8th table): 0.25 µg/mL (≈ 0.605 µM) | MIC (Group A Strep; 2007-28 Group A Strep, the 8th table): < 0.125 µg/mL | MIC (Group A Strep; 2007-49 Group A Strep, the 8th table): ≤ 0.125 µg/mL | MIC (Group A Strep; 2007-73 Group A Strep, the 8th table): ≤ 0.125 µg/mL | MIC (Group A Strep; 2007-107 Group A Strep, the 8th table): 0.25 µg/mL (≈ 0.605 µM) | MIC (Group A Strep; 2007-1101 Group A Strep, the 8th table): ≤ 0.125 µg/mL | MIC (Group A Strep; 2008-06 Group A Strep, the 8th table): ≤ 0.125 µg/mL | MIC (Group A Strep; 2008-45 Group A Strep, the 8th table): ≤ 0.125 µg/mL | MIC (Group A Strep; 2008-818 Group A Strep, CA-MHB w/5% LHB, the 4th table): ≤ 0.125 µg/mL | MIC (Group A Strep; 2008-1565 Group A Strep, the 8th table): 0.25 µg/mL (≈ 0.605 µM) | MIC (Group A Strep; 2008-1692 Group A Strep, the 8th table): 0.25 µg/mL (≈ 0.605 µM) | MIC (Group A Strep; 2008-1732 Group A Strep, CA-MHB w/5% LHB, the 4th table): ≤ 0.125 µg/mL | MIC (Group A Strep; 2009-8 Group A Strep, the 8th table): 0.25 µg/mL (≈ 0.605 µM) | MIC (Group A Strep; 2009-37 Group A Strep, CA-MHB w/5% LHB, the 4th table): ≤ 0.125 µg/mL | MIC (Group A Strep; 2009-106 Group A Strep, the 8th table): 0.25 µg/mL (≈ 0.605 µM) | MIC (Group A Strep; 2009-109 Group A Strep, the 8th table): ≤ 0.125 µg/mL | MIC (Group A Strep; 2009-114 Group A Strep, the 8th table): 0.25 µg/mL (≈ 0.605 µM) | MIC (Group A Strep; 2009-136 Group A Strep, the 8th table): ≤ 0.125 µg/mL
